Measured values as given in PubChem BioAssay AID602484 (Southern Research Specialized Biocontainment Screening …, 2012).

Tested on: VEEV TrD infected cells, CPE inhibition
Test: CPE inhibition in VEEV TrD infected cells, confirmatory dose response (AID 602484)

Structure (SMILES)	IC50 [nM]
CN1CCN(Cc2nc3ccc([N+](=O)[O-])cc3c(=O)n2-c2ccccc2F)CC1	270
CN(C(=O)Cc1cccs1)c1nc2c(s1)CCCC2	2030
CCN1CCN(Cc2nc3ccc([N+](=O)[O-])cc3c(=O)n2-c2ccccc2F)CC1	370
